Laboratory results taken from patent US5684222A (priority 1994, dated 1997).

Tested on: TNFRp55+/+ mice
Details: mouse, in vivo

Structure (SMILES): N[C@H]1C(O)O[C@H](CO)[C@H](O)[C@@H]1O (stereo partly drawn) [D-Gal, D-galactosamine]
- TNFRp55 +/+ dead/group: 0/4
